Test results from patent publication US20090209638A1, “TREATMENT FOR DEPRESSIVE DISORDERS” (priority 2006, published 2009).

Assays:
[1] = test system: cerebellar cGMP; test: Stress-induced cerebellar cGMP elevation; format: in vivo, Rats; conditions: for activity in the stress-induced cGMP assay: data not shown, levels similar to what was observed for MA-1
Procedure: Protocol: Animals were placed into a shock chamber with a steel grid floor and shocked at 1 mA for 10 seconds. One minute following the stressor, the animals were placed into a plastic restraint tube and sacrificed by microwave irradiation (1.8 sec at 3.5 kW). The cerebellum was rapidly removed, snap frozen, and stored at −80° C. prior to the cGMP assay. Non-stressed animals were taken directly from their cages and sacrificed by microwave irradiation and tissues were processed in a similar manner. Drug dosing was performed 30-60 min prior to foot-shock stress. For the cGMP assay, the tissue was homogenized in 2 ml of 1% perchloric acid using a Brinkman Polytron at setting #5 for ˜15 sec each and placed on ice until all samples were homogenized. Samples were then placed in an 85C water bath for 5 min, centrifuged at 2500G for 15 min, and ˜0.5 ml of the supernatant was collected for analysis. Supernatants were diluted 1:20 in sodium acetate buffer according to the directions of the manufacturer of the 1251-cGMP flashplates. Diluted samples were incubated overnight in flashplate wells with 1251-cGMP, assayed on a gamma-counter plate reader, and converted to pmol cGMP/mg tissue using a standard curve generated in the same experiment.

[2] = test system: Rats; test: Rat Forced Swim Test (behavioral despair test); format: in vivo; conditions: for decrease in immobility time: dark phase
Procedure: Protocol: Animals were tested in the forced swim test using the protocol originally described by Porsolt et al (Eur. J. Pharmacol., 47, 379-391,1978). Rats were individually placed in a cylinder (Height=40 cm, Diameter=20 cm) containing 13 cm water (25° C.) for 15 minutes on the first day of the experiment (Session 1) and were then put back in the water 24 hours later for a 5 minute test (Session 2). The duration of immobility during the 5 minute test was measured. Six rats were studied per group. The test was performed blind. Session 1 and Session 2 were performed either during the light cycle, i.e. between 2.5 and 5.5 hours after lights-on, or during the dark cycle, i.e. between 2.5 and 5.5 hours after lights-off. The tests during the light cycle were therefore performed between 9:30 am and 12:30 pm, whereas the tests during the dark cycle, because of the light cycle shift, were performed between 14:30 pm and 17:30 pm.
To permit the 2 phases of the experiment (light phase and dark phase) to be performed on the same day by the same laboratory technician, the animals to be tested during the dark phase were submitted to a light cycle shift 12 days prior to the first session of the forced swim test whereby the light/dark cycle was advanced 7 hours (lights-on: 0:00 am, lights-off: 12:00 pm). The 12-day period was estimated to be sufficient for the dark-cycle animals to adjust to the shift. To habituate the rats to the light cycle shift, the dark-cycle animals were submitted to the shift 12 days prior to Session 1. To ensure otherwise similar conditions between the light-cycle and dark-cycle animals, all animals to be used in the experiment were from the same delivery batch and were placed in their experimental living cages at the same time, i.e. 12 days before Session 1.
Testing during the light phase was performed under normal laboratory illumination, and testing during the dark phase was performed under infrared illumination. MA-1, agomelatine, and melatonin were evaluated at 2 oral (p.o.) doses each, administered twice (24 hours and 1 hour before Session 2). The first administration was given immediately after Session 1. Imipramine (64 mg/kg p.o.), administered twice under the same experimental conditions, was used as reference substance.

[3] = test system: Mice; test: Mouse Forced Swim Test; format: in vivo
Procedure: Protocol: Animals were maintained on a 12:12 LD cycle with lights on at 0600 h. Mice were placed into the testing room at least 1 h prior to the start of the test. Vehicle, amitriptyline and MA-1 were administered under one of three conditions: A) acute treatment, animals dosed 30 minutes prior to testing; B) 4 day subchronic AM treatment, with dosing occurring during the early morning period (0900-1100 h), with the final dose occurring 30 min prior to testing; and C) subchronic PM treatment with dosing occurring during the evening period (1730-1800 h, right before lights off), and the forced swim test took place the following morning. Animals were tested in the forced swim test using a modification of the protocol originally described by Porsolt et al. (1978). Mice were placed into 1 L beakers (KIMAX #14005) filled with 800 ml of water (20-22° C.) for a 7 min swim period. Animals were only scored for the last 5 minutes of the test and were assigned either a “0” if they were actively swimming or “1” if they were immobile, except for small movements needed to keep afloat. During the 5 minute scoring period, there are ten 30 sec intervals scored for a total possible score of 0-10 for each mouse. Data was reported as median (interquartile range). Each study was run independently with separate groups of naive mice. Data were analyzed using Statview (SAS, Cary, N.C.) with a Kruskal-Wallis analysis, followed by Mann-Whitney U-test with the significance level set at p<0.05.

[4] = test system: Rats; test: Modified forced swim test in rats (study not reported); format: in vivo, rat; conditions: 5 mg/kg and 10 mg/kg
[5] = Solubility of MA-1; format: physicochemical
[6] = molecular target: Melatonin-1 (MT1) receptor (Homo sapiens, UniProt P48039); conditions: cited from earlier work
Melatonin-1 (MT1) receptor, sequence (P48039 whole entry): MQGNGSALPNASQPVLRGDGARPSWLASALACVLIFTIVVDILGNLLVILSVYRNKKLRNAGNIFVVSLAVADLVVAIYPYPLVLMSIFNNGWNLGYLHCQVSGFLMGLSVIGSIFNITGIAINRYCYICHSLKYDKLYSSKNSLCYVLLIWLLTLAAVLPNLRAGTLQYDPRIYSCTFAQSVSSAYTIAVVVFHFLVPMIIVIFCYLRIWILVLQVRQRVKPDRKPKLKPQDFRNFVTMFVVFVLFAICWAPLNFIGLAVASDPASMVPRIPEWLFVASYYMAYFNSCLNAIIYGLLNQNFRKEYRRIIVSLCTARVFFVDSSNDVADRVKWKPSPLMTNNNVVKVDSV

[7] = molecular target: T1, Melatonin-2 (MT2) receptor (Homo sapiens, UniProt P49286); conditions: cited from earlier work
T1 sequence (P49286 1-362): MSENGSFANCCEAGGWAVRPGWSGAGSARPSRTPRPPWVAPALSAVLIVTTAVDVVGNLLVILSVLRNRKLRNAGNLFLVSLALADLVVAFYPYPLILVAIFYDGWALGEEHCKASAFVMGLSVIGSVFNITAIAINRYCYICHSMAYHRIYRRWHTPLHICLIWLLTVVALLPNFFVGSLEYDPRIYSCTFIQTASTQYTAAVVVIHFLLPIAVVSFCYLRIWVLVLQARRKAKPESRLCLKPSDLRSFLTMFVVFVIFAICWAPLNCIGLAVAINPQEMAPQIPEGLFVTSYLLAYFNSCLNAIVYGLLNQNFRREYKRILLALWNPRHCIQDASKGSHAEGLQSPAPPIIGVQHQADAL

[8] = dark cycle, 10 mg/kg p.o. −24 h and −60 min
[9] = dark cycle, 50 mg/kg p.o. −24 h and −60 min
[10] = light cycle, 10 mg/kg p.o. −24 h and −60 min
[11] = light cycle, 50 mg/kg p.o. −24 h and −60 min
[12] = dark cycle, 64 mg/kg p.o. −24 h and −60 min
[13] = light cycle, 64 mg/kg p.o. −24 h and −60 min
[14] = condition A: acute treatment, testing 30 minute post-dose
[15] = condition B: 4-day sub-chronic AM dosing, testing 30 minutes following final dose
[16] = condition C: 4-day sub-chronic PM dosing, testing the following morning
[17] = dark cycle, 1 mg/kg p.o. −24 h and −60 min
[18] = light cycle, 1 mg/kg p.o. −24 h and −60 min

| SMILES | activity in the stress-induced cGMP assay [1] | DURATION OF IMMOBILITY % change from control [2, 8] [%] | DURATION OF IMMOBILITY mean ± s.e.m. [2, 8] [s] | DURATION OF IMMOBILITY % change from control [2, 9] [%] | DURATION OF IMMOBILITY mean ± s.e.m. [2, 9] [s] | DURATION OF IMMOBILITY % change from control [2, 10] [%] | DURATION OF IMMOBILITY mean ± s.e.m. [2, 10] | DURATION OF IMMOBILITY % change from control [2, 11] | DURATION OF IMMOBILITY mean ± s.e.m. [2, 11] [NS s] | activity in mouse forced swim model [3, 14] | activity in mouse forced swim model [3, 15] | activity in mouse forced swim model [3, 16] | decrease in immobility time ([2]; 10 mg/kg) [%] | also measured |
| --- | --- | --- | --- | --- | --- | --- | --- | --- | --- | --- | --- | --- | --- | --- |
| COc1ccc2[nH]cc(CCNC(C)=O)c2c1 [Melatonin, melatonin] | shown activity | −37 | 132.8 ± 16.5 | −21 | 166.8 ± 16.6 | −40 | 101.3 ± 18.8 s | 0% | 167.7 ± 10.8 | – | – | – | – | – |
| CN(C)CCCN1c2ccccc2CCc2ccccc21 [Imipramine] | – | – | – | – | – | – | – | – | – | – | – | – | – | DURATION OF IMMOBILITY % change from control [2, 12]: −70%; DURATION OF IMMOBILITY mean ± s.e.m. [2, 12]: 63.0 ± 11.1 s; DURATION OF IMMOBILITY % change from control [2, 13]: −71%; DURATION OF IMMOBILITY mean ± s.e.m. [2, 13]: 49.5 ± 10.6 s |
| CCC(=O)NC[C@@H]1C[C@H]1c1cccc2c1CCO2 [MA-1, (1R-trans)-N-[[2-(2,3-dihydro-4-benzofuranyl)cyclopropyl]methyl]propanamide] | – | −41 | 124.8 ± 18.8 | – | – | −25 | 126.3 ± 26.9 NS s | – | – | did not demonstrate activity | did not demonstrate activity | did not demonstrate activity | 41 | attenuation of shock-induced increase in cerebellar cGMP levels ([1]; rats, electric shock 1 mA 10 s, doses of 0.1-10 mg/kg, dosed 30-60 min prior to foot-shock, no dose-responsiveness): ~50%; DURATION OF IMMOBILITY % change from control [2, 17]: −37%; DURATION OF IMMOBILITY mean ± s.e.m. [2, 17]: 133.0 ± 6.6 s; decrease in immobility time ([2]; 1 mg/kg): 37%; DURATION OF IMMOBILITY % change from control [2, 18]: −14%; DURATION OF IMMOBILITY mean ± s.e.m. [2, 18]: 145.3 ± 26.0 NS s; effects on immobility, swimming, or climbing statistically different from vehicle [4]: did not show effects; effect of pH on aqueous solubility [5]: practically unaffected by pH; solubility ([5]; in 95% ethanol, methanol, acetonitrile, ethyl acetate, isopropanol, polyethylene glycols (PEG-300 and PEG-400)): very soluble or freely soluble; solubility ([5]; in water): only slightly soluble; native pH of a saturated solution in water ([5]; saturated solution in water): 8.5; affinity [6]: high affinity; affinity [7]: high affinity |
| CN(C)CCC=C1c2ccccc2CCc2ccccc21 [Amitriptyline] | – | – | – | – | – | – | – | – | – | active | active | did not show activity | – | – |
| COc1ccc2cccc(CCNC(C)=O)c2c1 [agomelatine] | shown activity | −60 | 84.8 ± 8.2 | −33 | 140.2 ± 19.1 | −42 | 97.8 ± 13.5 s | +13% | 191.0 ± 9.4 | – | – | – | 60 | decrease in immobility time ([2]; 50 mg/kg): 33% |
